Data reported in article PMC6941952, “A homogeneous bioluminescent immunoassay to probe cellular signaling pathway regulation” (Communications Biology, 2020).
Several values for one entry are separate records, joined by “and”; a condition that tells them apart may be missing. Equal values may be shown once.

Tested on: STAT3 Phospho-Tyr705
Assay: NanoBiT pSTAT3 cell-based immunoassay in A431 cells
Set-up: species or system human
Conditions: for Raw data P-STAT3 / Subtract reagent background P-STAT3 / P-STAT3 (% compared to no inhibitor) / Average P-STAT3 (% compared to no inhibitor): IL-6 10 ng/ml, A431, Fig 6e; for P-STAT3 (% compared to no inhibitor): replicate
Description: Prior to NanoBiT Cell-Based Immunoassay, 50,000 cells were seeded in 160 µl of complete growth media per well of a 96-well plate and incubated overnight. […] If necessary, the cell culture media were replaced with serum-free media after the cells were stably adherent on the plate and incubated overnight. To treat cells with activators or inhibitors, medium was changed to 30 µl of medium containing inhibitors. If activation of a specific pathway is needed, the cells were stimulated with 10 µl of medium containing activators. To lyse the cells, 10 µl of lysis buffer containing 0.1% digitonin diluted in 1X immunoassay buffer with protease and phosphatase inhibitors was added and the plates were mixed vigorously for 20 min. Then, 50 µl of an antibody mix containing two primary antibodies against the target protein and NanoBiT detecting antibodies (0.3 µl each per well), diluted in 1X immunoassay buffer was added to the lysates. The plates were incubated at 23 °C for 90 min, followed by the addition of 25 µl of Nano-Glo® reagent consisting of Nano-Glo® Luciferase Assay Substrate mixed with 1X immunoassay buffer. Luminescence was measured using a plate-reading luminometer.
Single dose or dose response inhibitor treatments were performed prior to activation of the pathways as follows. For IκBα, the cells were treated in 30 µl medium with IKK16 or MG132 for 60 min before the addition of 10 µl of DMEM containing appropriate concentration of TNFα. To measure phosphorylation of AKT or STAT3, the corresponding NanoBiT immunoassays were developed with MCF-7 or A431 cells, respectively, according the same scheme used to develop the IκBα assay using the primary antibodies for AKT and STAT3 described in the reagents section. […] Treatment with LY294002 was performed in 30 µl medium and cells were incubated for 60 min before the addition of 1 µM Insulin. To measure STAT3 phosphorylation, A431 cells were incubated overnight in DMEM medium without serum. […] After addition of the stimulators, the cells were incubated for additional times as follows. IκBα phosphorylation and degradation analyses required both time courses and single time points as described in figures. […] The NanoBiT immunoassay protocol was followed as described above.
All 96-well assay plates were read using a GloMax® 96 Microplate Luminometer from Promega. The instrument was set to 0.5 s integration time. In order to obtain net change of signal, the reagent background values (signal from the well containing all reagent except primary antibodies) were subtracted from the sample values. To plot and analyze the data, Microsoft Excel and GraphPad Prism® Software were used. IC50 values were determined by using a nonlinear regression fit to a sigmoidal dose response (variable slope).

[1] = A431 cells, pretreated 1 h, IL-6 10 ng per ml 30 min

Tocilizumab: humanized monoclonal antibody against the IL-6 receptor, approved immunosuppressive drug
IC50, inhibition of Phospho-STAT3 [1]: 0.16 µg/mL
STAT3 phosphorylation / JAK2-STAT3 pathway activation, dose response [1]: inhibited
Raw data P-STAT3 (Actemra 7.62939e-5 ug/ml): 317500 and 271600 and 267300
Subtract reagent background P-STAT3 (Actemra 7.62939e-5 ug/ml): 173175 and 168875 and 219075
P-STAT3 (% compared to no inhibitor) (Actemra 7.62939e-5 ug/ml): 117.6%
Raw data P-STAT3 (Actemra 0.000305176 ug/ml): 341900 and 251000 and 260600
Subtract reagent background P-STAT3 (Actemra 0.000305176 ug/ml): 155645 and 165245 and 246545
P-STAT3 (% compared to no inhibitor) (Actemra 0.000305176 ug/ml): 91.7% and 120.7%
Raw data P-STAT3 (Actemra 0.0012207 ug/ml): 299200 and 250300 and 276700
Subtract reagent background P-STAT3 (Actemra 0.0012207 ug/ml): 153990 and 180390 and 202890
Average P-STAT3 (% compared to no inhibitor) (Actemra 0.00488281 ug/ml): 74.6%
Raw data P-STAT3 (Actemra 0.00488281 ug/ml): 245000 and 216200 and 217700
Subtract reagent background P-STAT3 (Actemra 0.00488281 ug/ml): 121185 and 122685 and 149985
P-STAT3 (% compared to no inhibitor) (Actemra 0.00488281 ug/ml): 82.3% and 68.1% and 73.4%
Average P-STAT3 (% compared to no inhibitor) (Actemra 0.0195312 ug/ml): 41.8%
Raw data P-STAT3 (Actemra 0.0195312 ug/ml): 170000 and 159800 and 165700
Subtract reagent background P-STAT3 (Actemra 0.0195312 ug/ml): 67955 and 73855 and 78155
P-STAT3 (% compared to no inhibitor) (Actemra 0.0195312 ug/ml): 46.2% and 41.0% and 38.2%
Average P-STAT3 (% compared to no inhibitor) (Actemra 0.078125 ug/ml): 19.4%
Raw data P-STAT3 (Actemra 0.078125 ug/ml): 138700 and 129600 and 119000
Subtract reagent background P-STAT3 (Actemra 0.078125 ug/ml): 34580 and 23980 and 43680
P-STAT3 (% compared to no inhibitor) (Actemra 0.078125 ug/ml): 23.5% and 13.3% and 21.4%
Average P-STAT3 (% compared to no inhibitor) (Actemra 0.3125 ug/ml): 9.3%
Raw data P-STAT3 (Actemra 0.3125 ug/ml): 116800 and 110300 and 113700
Subtract reagent background P-STAT3 (Actemra 0.3125 ug/ml): 13270 and 16670 and 19770
P-STAT3 (% compared to no inhibitor) (Actemra 0.3125 ug/ml): 9.0% and 9.3% and 9.7%
Average P-STAT3 (% compared to no inhibitor) (Actemra 5 ug/ml): 7.9%
Raw data P-STAT3 (Actemra 5 ug/ml): 110700 and 107600 and 97720
P-STAT3 (% compared to no inhibitor) (Actemra 5 ug/ml): 10.8% and 3.4% and 9.3%
Average P-STAT3 (% compared to no inhibitor) (Actemra 20 ug/ml): 7.7%
Raw data P-STAT3 (Actemra 20 ug/ml): 106200 and 97590
P-STAT3 (% compared to no inhibitor) (Actemra 20 ug/ml): 11.0% and 4.2% and 7.9%
Average P-STAT3 (% compared to no inhibitor) (Actemra […]): 7.7%
